Results published in patent US10072017B2, “Compounds and methods for the treatment of cystic fibrosis” (Flatley Discovery Lab, LLC, priority 2015, dated 2018).

Molecular target: T1, CFTR (Homo sapiens, UniProt P13569, DEL508-508)
T1 construct: Primary CF airway epithelial cells were obtained from the UNC Cystic Fibrosis Tissue Procurement and Cell Culture Core; host or cells: primary CF airway epithelial cells
Assay: Equivalent current assay in Primary CF airway epithelial cells (NAUC)
Type: cell-based
Settings: 24 h, normalized to VX809 (3 μM) positive control; for Nauc @ 3 μM: 3 μM test compound; for Nauc @ 10 μM: 10 μM test compound
Procedure, shortened: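 Primary CF airway epithelia differentiated ≥4 weeks at air-liquid interface, treated basolaterally 24 h at 37 °C with test compounds in combination with VX809, 0.1% DMSO vehicle. Equivalent current recorded after 5 μM benzamil, 10 μM forskolin plus 1 μM VX770, then CFTR-172/bumetanide 20 μM; vehicle-subtracted AUC normalized to 3 μM VX809 (NAUC), median of n≥4, sigmoid fit for EC50.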

T1 sequence (P13569 with tags, fused parts or gaps DEL508-508): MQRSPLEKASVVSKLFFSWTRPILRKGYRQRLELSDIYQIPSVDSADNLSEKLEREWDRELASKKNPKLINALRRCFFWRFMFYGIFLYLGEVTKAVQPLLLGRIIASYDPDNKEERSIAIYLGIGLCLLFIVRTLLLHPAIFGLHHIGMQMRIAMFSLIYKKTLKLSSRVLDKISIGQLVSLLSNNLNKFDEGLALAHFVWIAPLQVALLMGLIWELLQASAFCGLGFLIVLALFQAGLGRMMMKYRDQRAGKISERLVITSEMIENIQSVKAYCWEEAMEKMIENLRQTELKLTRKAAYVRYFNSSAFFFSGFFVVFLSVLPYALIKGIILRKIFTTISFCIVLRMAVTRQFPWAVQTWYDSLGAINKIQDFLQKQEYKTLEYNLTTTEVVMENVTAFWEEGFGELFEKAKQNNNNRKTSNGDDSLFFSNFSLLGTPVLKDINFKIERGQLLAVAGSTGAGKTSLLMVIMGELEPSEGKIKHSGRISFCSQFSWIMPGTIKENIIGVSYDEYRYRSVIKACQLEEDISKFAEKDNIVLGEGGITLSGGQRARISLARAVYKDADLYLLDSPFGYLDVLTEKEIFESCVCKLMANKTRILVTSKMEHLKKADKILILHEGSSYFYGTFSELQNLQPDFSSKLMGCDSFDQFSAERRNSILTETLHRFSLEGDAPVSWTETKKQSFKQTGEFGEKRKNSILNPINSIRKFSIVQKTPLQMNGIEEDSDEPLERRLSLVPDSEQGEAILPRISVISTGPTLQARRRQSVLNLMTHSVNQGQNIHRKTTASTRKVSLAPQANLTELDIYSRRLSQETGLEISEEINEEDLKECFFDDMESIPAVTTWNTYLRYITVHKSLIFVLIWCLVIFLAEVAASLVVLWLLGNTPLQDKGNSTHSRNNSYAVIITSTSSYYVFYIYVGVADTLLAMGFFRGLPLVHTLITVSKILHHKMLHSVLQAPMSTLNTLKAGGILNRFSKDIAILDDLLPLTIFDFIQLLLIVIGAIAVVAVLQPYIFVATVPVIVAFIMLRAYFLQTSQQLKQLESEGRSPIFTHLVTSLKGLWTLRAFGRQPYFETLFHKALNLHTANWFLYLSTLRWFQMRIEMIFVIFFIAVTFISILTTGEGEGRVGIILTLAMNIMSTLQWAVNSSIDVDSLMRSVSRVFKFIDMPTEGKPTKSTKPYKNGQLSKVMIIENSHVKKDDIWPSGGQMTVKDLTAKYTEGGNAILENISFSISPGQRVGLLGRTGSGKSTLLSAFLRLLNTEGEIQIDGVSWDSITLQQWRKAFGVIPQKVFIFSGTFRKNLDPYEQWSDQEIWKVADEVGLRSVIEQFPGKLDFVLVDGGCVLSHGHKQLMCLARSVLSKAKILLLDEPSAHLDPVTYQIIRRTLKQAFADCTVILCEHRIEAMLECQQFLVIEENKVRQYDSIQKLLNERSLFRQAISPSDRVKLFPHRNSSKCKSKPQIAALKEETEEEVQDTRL

SMILES | Nauc @ 3 μM | Nauc @ 10 μM
O=C1C2C3CC4(CC4)CN3C3(C(=O)Nc4c(Cl)cc(Cl)cc43)C2C(=O)N1c1cc(Cl)cc(Cl)c1 (single isomer, unassigned) [Example 192] | + (NAUC “+” refers to an observed NAUC <140% of positive control) | ++ (NAUC “++” refers to an observed NAUC 170-140% of positive control)
O=C1C2C3C[C@H](O)CN3C3(C(=O)Nc4c(Cl)cc(Cl)cc43)C2C(=O)N1c1cc(Cl)c(OC(F)F)c(Cl)c1 (some centres unmarked) [Example 244] | ++ (NAUC “++” refers to an observed NAUC 170-140% of positive control) | ++ (NAUC “++” refers to an observed NAUC 170-140% of positive control)
O=C(O)c1cccc(C2C3C(=O)N(c4cc(Cl)cc(Cl)c4)C(=O)C3C3CCCN32)c1 (centres unmarked) [Example 150] | + (NAUC “+” refers to an observed NAUC <140% of positive control) | ++ (NAUC “++” refers to an observed NAUC 170-140% of positive control)
COc1c(Cl)cc(N2C(=O)C3C4C[C@H](Cl)CN4C4(C(=O)Nc5c(Cl)cc(Cl)cc54)C3C2=O)cc1Cl (some centres unmarked) [Example 79] | +++ (NAUC “+++” refers to an observed NAUC >170% of positive control) | +++ (NAUC “+++” refers to an observed NAUC >170% of positive control)
O=C1C2C3CC(=C(F)F)CN3C3(C(=O)Nc4c(Cl)cc(Cl)cc43)C2C(=O)N1c1cccc(C(F)(F)F)c1 (centres unmarked) [Example 126] | +++ (NAUC “+++” refers to an observed NAUC >170% of positive control) | +++ (NAUC “+++” refers to an observed NAUC >170% of positive control)
O=C1C2C(Cc3ccc(F)cc3)NC3(C(=O)Nc4c(Cl)cc(Cl)cc43)C2C(=O)N1c1cc(Cl)cc(Cl)c1 (centres unmarked) [Example 196] | + (NAUC “+” refers to an observed NAUC <140% of positive control) | ++ (NAUC “++” refers to an observed NAUC 170-140% of positive control)
CC1(C)CC2C3C(=O)N(c4cc(Cl)cc(Cl)c4)C(=O)C3C3(C(=O)Nc4c(Cl)cc(Cl)cc43)N2C1 (single isomer, unassigned) [Example 119] | +++ (NAUC “+++” refers to an observed NAUC >170% of positive control) | +++ (NAUC “+++” refers to an observed NAUC >170% of positive control)
COc1cc(Cl)cc(N2C(=O)C3C4C[C@](C)(F)CN4C4(C(=O)Nc5c(Cl)cc(Cl)cc54)C3C2=O)c1 (some centres unmarked) [Example 205] | ++ (NAUC “++” refers to an observed NAUC 170-140% of positive control) | +++ (NAUC “+++” refers to an observed NAUC >170% of positive control)
Cc1csc(N2C(=O)C3C4CCCN4C4(C(=O)Nc5c(Cl)cc(Cl)cc54)C3C2=O)n1 (centres unmarked) [Example 101] | + (NAUC “+” refers to an observed NAUC <140% of positive control) | +++ (NAUC “+++” refers to an observed NAUC >170% of positive control)
O=C1C2C3CC(C(F)F)CN3C3(C(=O)Nc4c(Cl)cc(Cl)cc43)C2C(=O)N1c1cc(Cl)nc(Cl)c1 (centres unmarked) [Example 132] | + (NAUC “+” refers to an observed NAUC <140% of positive control) | ++ (NAUC “++” refers to an observed NAUC 170-140% of positive control)
C[C@]1(F)CC2C3C(=O)N(c4cc(Cl)cc(Cl)c4)C(=O)C3C3(C(=O)Nc4c(Cl)cc(Cl)cc43)N2C1 (single isomer, unassigned) [Example 249] | ++ (NAUC “++” refers to an observed NAUC 170-140% of positive control) | + (NAUC “+” refers to an observed NAUC <140% of positive control)
CC(C)CC1NC2(C(=O)Nc3c(Cl)cc(Cl)cc32)C2C(=O)N(c3cc(Cl)cc(Cl)c3)C(=O)C12 (centres unmarked) [Example 164] | ++ (NAUC “++” refers to an observed NAUC 170-140% of positive control) | +++ (NAUC “+++” refers to an observed NAUC >170% of positive control)
COc1ccc2c(c1)NC(=O)C21C2C(=O)N(c3cc(Cl)cc(Cl)c3)C(=O)C2C2CCCN21 (centres unmarked) [Example 98] | +++ (NAUC “+++” refers to an observed NAUC >170% of positive control) | +++ (NAUC “+++” refers to an observed NAUC >170% of positive control)
O=C1C2C(Cc3cccc(O)c3)NC3(C(=O)Nc4c(Cl)cc(Cl)cc43)C2C(=O)N1c1cc(Cl)cc(Cl)c1 (centres unmarked) [Example 202] | + (NAUC “+” refers to an observed NAUC <140% of positive control) | ++ (NAUC “++” refers to an observed NAUC 170-140% of positive control)
CCC(C)C1NC2(C(=O)Nc3c(Cl)cc(Cl)cc32)C2C(=O)N(c3cc(Cl)cc(OC)c3)C(=O)C12 (centres unmarked) [Example 7, 3′-(Sec-butyl)-5,7-dichloro-5′-(3-chloro-5-methoxyphenyl)-2′,3′,3a′,6a′-tetrahydro-4′H-spiro[indoline-3,1′-pyrrolo[3,4-c]pyrrole]-2,4′,6′(5′H)-trione] | ++ (NAUC “++” refers to an observed NAUC 170-140% of positive control) | ++ (NAUC “++” refers to an observed NAUC 170-140% of positive control)
CC12C(=O)N(c3cc(Cl)cc(Cl)c3)C(=O)C1(C)C1(C(=O)Nc3c(Cl)cc(Cl)cc31)N1CCCC12 (centres unmarked) [Example 39] | + (NAUC “+” refers to an observed NAUC <140% of positive control) | ++ (NAUC “++” refers to an observed NAUC 170-140% of positive control)
C[C@]1(O)CC2C3C(=O)N(c4cc(Cl)cc(Cl)n4)C(=O)C3C3(C(=O)Nc4c(Cl)cc(Cl)cc43)N2C1 (some centres unmarked) [Example 172] | ++ (NAUC “++” refers to an observed NAUC 170-140% of positive control) | +++ (NAUC “+++” refers to an observed NAUC >170% of positive control)
O=C1C2C3c4ccccc4CN3C3(C(=O)Nc4c(Cl)cc(Cl)cc43)C2C(=O)N1c1cc(Cl)cc(Cl)c1 (centres unmarked) [Example 22] | +++ (NAUC “+++” refers to an observed NAUC >170% of positive control) | +++ (NAUC “+++” refers to an observed NAUC >170% of positive control)
O=C1C2C(Cc3ccccc3)NC3(C(=O)Nc4c(Cl)cc(Cl)cc43)C2C(=O)N1c1cc(Cl)cc(Cl)c1 (centres unmarked) [Example 154] | +++ (NAUC “+++” refers to an observed NAUC >170% of positive control) | +++ (NAUC “+++” refers to an observed NAUC >170% of positive control)
COc1cc(Cl)cc(N2C(=O)C3C4C[C@](C)(O)CN4C4(C(=O)Nc5c(Cl)cc(Cl)cc54)C3C2=O)c1 (single isomer, unassigned) [Example 256] | ++ (NAUC “++” refers to an observed NAUC 170-140% of positive control) | +++ (NAUC “+++” refers to an observed NAUC >170% of positive control)
COc1ccccc1CC1NC2(C(=O)Nc3c(Cl)cc(Cl)cc32)C2C(=O)N(c3cc(Cl)cc(Cl)c3)C(=O)C12 (centres unmarked) [Example 201] | + (NAUC “+” refers to an observed NAUC <140% of positive control) | +++ (NAUC “+++” refers to an observed NAUC >170% of positive control)
C[C@@]1(F)CC2C3C(=O)N(c4cc(Cl)cc(Cl)n4)C(=O)C3C3(C(=O)Nc4c(Cl)cc(Cl)cc43)N2C1 (single isomer, unassigned) [Example 230] | +++ (NAUC “+++” refers to an observed NAUC >170% of positive control) | +++ (NAUC “+++” refers to an observed NAUC >170% of positive control)
